The subject of the experiment is T1, PLZ1.4 (PhotoLanZyme 1.4).
T1 construct: de novo design; single-chain fusion of two TFD subunits via one Gly; active-site W6 and W175 removed, two active-site mutations, eight surface mutations (6x D to N, 2x E to Q); loaded with CeCl3
The experiment is described as follows: Michaelis-Menten kinetics of photocatalytic diol cleavage. To be noted: CeCl3-loaded enzyme, visible light, aerobic, aqueous buffer. The class given is biochemical, synthetic construct.

The structures appear in SMILES notation.

In the case of `OCC(Oc1ccccc1)C(O)c1ccccc1` (centres unmarked) [compound 24, lignin surrogate 24], the Michaelis-Menten constant (Km) (in general, the concentration of substrate that gives half-maximal velocity) worked out at 5.5 ± 1 mM. Regarding `O[C@H](c1ccccc1)[C@H](O)c1ccccc1` [(R,R)-1], the Km ((R,R) isomer per Figure 2F) came to 2.9 ± 0.4 mM.
